The source made the active and inactive calls.
What was measured:
[1] = Shn3 3'UTR reporter inhibitors, dose response, cell-based, Clone20 osteoblasts, firefly luciferase, cherry-picked (AID 624132); type: functional;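 note: firefly luciferase luminescence from reporter carrying the Shn3 3'UTR in osteoblasts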
[2] = control 3'UTR Renilla luciferase suppression, dose response, counter-screen for Shn3 inhibitor project, cell-based, Clone20-Shn3RL, cherry-picked (AID 624133); type: functional
[3] = HepG2 cell cytotoxicity, dose response, cytotoxicity control for Shn3 inhibitor project, CellTiter-Glo, cherry-picked (AID 624134); type: functional, cell-based
[4] = molecular target: Luciferin 4-monooxygenase (Photinus pyralis, UniProt P08659); assay: firefly luciferase enzyme inhibitors, dose response, biochemical, luminescence (AID 1891)
[5] = Luminescence Cell-Based Dose Confirmation HTS to Identify Inhibitors of Platelet Dense Granule Release. [Related pubchem assays: 1663 (Primary HTS), 1678 (Summary of Project)]; type: functional
Cytochrome P450 2D6 = Cytochrome P450 2D6 (Homo sapiens, UniProt P10635);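 note: CYP2D6 member of a cytochrome P450 panel assay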
Cytochrome P450 3A4 = Cytochrome P450 3A4 (Homo sapiens, UniProt P08684);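 note: CYP3A4 tested as one member of a cytochrome P450 panel screen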
Cytochrome P450 2C19 = Cytochrome P450 2C19 (Homo sapiens, UniProt P33261); assay: Cytochrome panel assay with activity outcomes. Panel member name: p450-cyp2c19 Compounds with AC50 equal or less than 10 uM are considered active; type: functional
[6] = inhibitors of SNCA 5'UTR-driven reporter translation, confirmation, H4 neuroglioma cells, luminescence (AID 1988); type: functional, cell-based
[7] = Luminescence Cell-Based Dose Response HTS to Identify Inhibitors of 5'UTR Stem-Loop Driven Prion Protein mRNA Translation in H4 Neuroglioblastoma Cells. [Related pubchem assays: 1827 (Project Summary), 1813 (Primary HTS)]; type: functional
[8] = molecular target: T1, Replicative DNA helicase DnaB (Mycobacterium tuberculosis, UniProt P9WMR3); assay: DnaB intein splicing inhibitors, dose response, biochemical, cell-free fluorescence (AID 449749); type: functional
T1 sequence (P9WMR3 whole entry): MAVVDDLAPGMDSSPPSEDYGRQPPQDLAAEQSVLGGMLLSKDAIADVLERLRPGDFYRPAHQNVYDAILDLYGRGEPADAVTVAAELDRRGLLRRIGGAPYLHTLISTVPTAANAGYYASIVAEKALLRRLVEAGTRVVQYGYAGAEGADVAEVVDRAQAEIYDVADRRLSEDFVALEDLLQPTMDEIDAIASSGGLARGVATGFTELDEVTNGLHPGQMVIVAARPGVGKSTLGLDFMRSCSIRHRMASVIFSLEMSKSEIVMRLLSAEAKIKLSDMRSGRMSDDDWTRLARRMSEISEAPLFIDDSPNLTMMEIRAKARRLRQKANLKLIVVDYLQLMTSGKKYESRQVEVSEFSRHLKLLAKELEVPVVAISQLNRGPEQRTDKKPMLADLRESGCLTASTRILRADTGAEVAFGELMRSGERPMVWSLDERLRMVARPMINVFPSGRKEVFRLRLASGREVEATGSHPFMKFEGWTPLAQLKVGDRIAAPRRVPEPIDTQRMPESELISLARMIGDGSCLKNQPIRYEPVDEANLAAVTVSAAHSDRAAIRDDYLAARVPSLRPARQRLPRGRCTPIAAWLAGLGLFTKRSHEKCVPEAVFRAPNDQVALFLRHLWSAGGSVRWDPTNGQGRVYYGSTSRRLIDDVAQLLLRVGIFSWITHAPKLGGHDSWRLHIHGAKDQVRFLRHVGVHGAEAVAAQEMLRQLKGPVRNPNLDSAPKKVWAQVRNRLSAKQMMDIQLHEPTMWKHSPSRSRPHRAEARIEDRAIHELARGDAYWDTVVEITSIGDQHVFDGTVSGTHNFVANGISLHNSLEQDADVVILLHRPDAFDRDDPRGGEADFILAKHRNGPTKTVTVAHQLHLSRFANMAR

Protein RecA = molecular target: T2, Protein RecA (Mycobacterium tuberculosis, UniProt P9WHJ3); assay: Fluorescence Cell-Free Homogeneous Dose Retest to Identify Inhibitors of RecA-Intein Splicing Activity. [Related pubchem assays (depositor defined):AID2097, AID2223, AID489010, AID492950]; type: functional
T2 sequence (P9WHJ3 whole entry): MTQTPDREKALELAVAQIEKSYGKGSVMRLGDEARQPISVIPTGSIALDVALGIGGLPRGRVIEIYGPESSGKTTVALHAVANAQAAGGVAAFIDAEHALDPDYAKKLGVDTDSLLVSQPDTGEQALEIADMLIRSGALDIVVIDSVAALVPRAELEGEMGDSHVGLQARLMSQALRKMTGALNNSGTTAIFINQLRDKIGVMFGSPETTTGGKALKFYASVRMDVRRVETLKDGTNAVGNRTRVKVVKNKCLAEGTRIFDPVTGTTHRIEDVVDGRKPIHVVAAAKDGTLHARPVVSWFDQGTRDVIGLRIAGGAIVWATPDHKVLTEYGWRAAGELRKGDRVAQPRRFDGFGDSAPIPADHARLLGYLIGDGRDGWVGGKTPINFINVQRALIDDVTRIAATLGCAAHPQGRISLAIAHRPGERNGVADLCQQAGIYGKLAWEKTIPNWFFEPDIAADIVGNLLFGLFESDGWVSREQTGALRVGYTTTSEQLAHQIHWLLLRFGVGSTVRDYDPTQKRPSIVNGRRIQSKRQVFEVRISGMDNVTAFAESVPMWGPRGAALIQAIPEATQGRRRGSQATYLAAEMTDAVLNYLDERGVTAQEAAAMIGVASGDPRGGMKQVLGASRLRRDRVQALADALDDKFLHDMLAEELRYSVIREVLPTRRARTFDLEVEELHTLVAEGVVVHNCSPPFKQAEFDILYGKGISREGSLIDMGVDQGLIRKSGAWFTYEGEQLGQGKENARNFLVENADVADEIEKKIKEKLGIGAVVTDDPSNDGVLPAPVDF

[9] = inhibitors of intracellular T. cruzi replication, confirmation, NIH3T3 host cells, beta-gal luminescence (AID 2044); type: functional, cell-based;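 note: intracellular parasites grown in NIH/3T3 mouse fibroblasts as host cells; luminescent beta-galactosidase reporter signal from transgenic T. cruzi replicating inside host cells; inhibitors lower the luminescence signal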
[10] = cytotoxicity toward NIH3T3 fibroblasts, dose response, counter-screen, cell-based, ATP luminescence, mouse fibroblasts (AID 2010); type: functional;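 note: cells exposed to compound for about 90 hours before reading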
cells [11] = type: functional, cell-based
cells [12] = type: functional, cell-based; remark: listed apart in the source
Cytochrome P450 1A2 = molecular target: T3, Cytochrome P450 1A2 (Homo sapiens, UniProt P05177);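 note: PubChem cytochrome P450 panel assay, CYP1A2 panel member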
T3 sequence (P05177 whole entry): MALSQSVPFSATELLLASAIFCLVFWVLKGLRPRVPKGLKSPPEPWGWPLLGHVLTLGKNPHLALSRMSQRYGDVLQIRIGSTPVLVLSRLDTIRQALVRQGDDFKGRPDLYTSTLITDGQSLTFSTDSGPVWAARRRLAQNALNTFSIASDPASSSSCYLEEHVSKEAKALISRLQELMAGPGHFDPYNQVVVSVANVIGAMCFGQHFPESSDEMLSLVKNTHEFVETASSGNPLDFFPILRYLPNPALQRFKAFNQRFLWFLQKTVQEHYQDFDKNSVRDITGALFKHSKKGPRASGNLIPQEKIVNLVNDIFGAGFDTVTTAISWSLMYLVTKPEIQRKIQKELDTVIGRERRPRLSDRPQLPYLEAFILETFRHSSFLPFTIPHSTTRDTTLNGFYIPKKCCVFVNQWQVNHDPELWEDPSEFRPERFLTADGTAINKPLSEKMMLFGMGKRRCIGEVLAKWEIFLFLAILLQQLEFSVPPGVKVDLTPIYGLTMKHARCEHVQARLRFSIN

[13] = Luminescence Cell-Based Dose Confirmation HTS to Identify Activators of 5'UTR Stem-Loop Driven Alpha-Synuclein mRNA Translation in H4 Neuroglioblastoma Cells. [Related pubchem assays: 1829 (Project Summary), 1814 (Primary HTS)]; type: functional
[14] = Luminescence Cell-Based Dose Response HTS to Identify Activators of Luciferase Translation or Activity in H4 […] Cells. [Related pubchem assays: 1829 (Project Summary), 1814 (Primary HTS)]; type: functional
H4 = assay: Luminescence Cell-Based Dose Response HTS to Identify Activators of 5'UTR Stem-Loop Driven Prion Protein mRNA Translation in H4 Neuroglioblastoma Cells. [Related pubchem assays: 1829 (Project Summary), 1814 (Primary HTS)]; type: functional; conditions: Homo sapiens

Sequence of Luciferin 4-monooxygenase (P08659 whole entry): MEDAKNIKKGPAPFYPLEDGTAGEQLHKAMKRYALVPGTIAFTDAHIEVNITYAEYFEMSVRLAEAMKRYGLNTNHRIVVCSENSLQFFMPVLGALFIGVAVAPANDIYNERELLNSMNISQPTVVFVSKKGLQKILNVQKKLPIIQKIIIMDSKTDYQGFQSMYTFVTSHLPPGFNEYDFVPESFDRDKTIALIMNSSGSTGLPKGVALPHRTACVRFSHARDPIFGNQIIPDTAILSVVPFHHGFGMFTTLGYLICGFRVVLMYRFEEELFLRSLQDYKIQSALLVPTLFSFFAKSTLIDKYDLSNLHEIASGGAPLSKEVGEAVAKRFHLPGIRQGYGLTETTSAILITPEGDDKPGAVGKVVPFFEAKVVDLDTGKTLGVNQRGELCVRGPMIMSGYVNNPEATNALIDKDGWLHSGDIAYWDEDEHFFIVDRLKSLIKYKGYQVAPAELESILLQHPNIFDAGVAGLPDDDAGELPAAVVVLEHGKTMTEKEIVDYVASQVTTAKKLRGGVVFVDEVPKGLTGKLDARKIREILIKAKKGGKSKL
Sequence of Cytochrome P450 2C19 (P33261 whole entry): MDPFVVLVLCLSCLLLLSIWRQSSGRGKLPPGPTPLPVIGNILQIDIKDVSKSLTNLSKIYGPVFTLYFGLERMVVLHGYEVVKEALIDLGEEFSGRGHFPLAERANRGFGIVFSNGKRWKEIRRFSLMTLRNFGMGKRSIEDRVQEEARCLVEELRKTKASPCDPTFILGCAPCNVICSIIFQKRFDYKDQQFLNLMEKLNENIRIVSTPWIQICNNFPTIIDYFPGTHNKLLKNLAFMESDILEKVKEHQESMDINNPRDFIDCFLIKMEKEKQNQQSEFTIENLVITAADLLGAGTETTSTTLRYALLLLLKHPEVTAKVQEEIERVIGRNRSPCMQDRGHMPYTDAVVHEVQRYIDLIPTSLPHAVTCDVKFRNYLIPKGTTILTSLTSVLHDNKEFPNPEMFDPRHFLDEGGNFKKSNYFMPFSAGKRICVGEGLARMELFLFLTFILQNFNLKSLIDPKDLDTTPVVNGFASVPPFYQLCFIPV
Sequence of Cytochrome P450 2D6 (P10635 whole entry): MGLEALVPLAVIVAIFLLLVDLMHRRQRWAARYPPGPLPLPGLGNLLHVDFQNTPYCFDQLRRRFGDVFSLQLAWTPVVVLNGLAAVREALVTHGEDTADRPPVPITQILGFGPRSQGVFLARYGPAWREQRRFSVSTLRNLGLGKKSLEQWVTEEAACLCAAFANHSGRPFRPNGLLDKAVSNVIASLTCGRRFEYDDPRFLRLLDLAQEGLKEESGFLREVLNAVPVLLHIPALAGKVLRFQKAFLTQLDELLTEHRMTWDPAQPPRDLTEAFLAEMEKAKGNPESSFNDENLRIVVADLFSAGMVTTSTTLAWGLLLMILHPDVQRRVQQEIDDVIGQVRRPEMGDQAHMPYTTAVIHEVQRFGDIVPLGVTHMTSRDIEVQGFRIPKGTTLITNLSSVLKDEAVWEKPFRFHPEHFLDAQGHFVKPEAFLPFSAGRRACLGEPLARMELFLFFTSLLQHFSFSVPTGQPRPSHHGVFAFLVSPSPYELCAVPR
Sequence of Cytochrome P450 3A4 (P08684 whole entry): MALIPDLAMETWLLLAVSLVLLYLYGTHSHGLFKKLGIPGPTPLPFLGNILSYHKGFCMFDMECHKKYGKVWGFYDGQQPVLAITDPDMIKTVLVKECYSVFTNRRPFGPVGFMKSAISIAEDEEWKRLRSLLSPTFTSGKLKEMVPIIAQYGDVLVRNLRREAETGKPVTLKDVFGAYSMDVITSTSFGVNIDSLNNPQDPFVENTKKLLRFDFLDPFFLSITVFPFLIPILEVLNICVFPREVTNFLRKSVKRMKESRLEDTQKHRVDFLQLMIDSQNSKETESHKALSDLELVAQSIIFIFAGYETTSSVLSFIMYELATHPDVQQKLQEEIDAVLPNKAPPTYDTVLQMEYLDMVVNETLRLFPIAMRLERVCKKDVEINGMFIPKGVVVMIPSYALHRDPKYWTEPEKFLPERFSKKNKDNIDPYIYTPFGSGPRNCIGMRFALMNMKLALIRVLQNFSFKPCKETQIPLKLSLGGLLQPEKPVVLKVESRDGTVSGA

NC(=O)CC(NC(=O)c1ccc(Br)cc1)c1ccc(N2CCC(Br)CC2)c([N+](=O)[O-])c1 (stereo unspecified)
AC50 [1]: 4.19 µM (active) | AC50 [2]: 17.5 µM (active) | AC50 [3]: 62.8 µM (active)

CN(C(=O)c1cc(S(=O)(=O)N2CCc3ccccc32)cn1C)C1CCCCC1
EC50 [4]: > 112 µM (not active) | EC50 [5]: > 112 µM (not active)

Cc1ccc(CS(=O)(=O)CCC(=O)NCCN2CCCC2)cc1
AC50 (Cytochrome P450 2D6): 0.1 µM (inconclusive) | AC50 (Cytochrome P450 3A4): 25.1 µM (inconclusive) | AC50 (Cytochrome P450 2C19; read-out: AC50): 39.8 µM (inconclusive)

Cc1cccc(CNc2cc(-c3ccccc3CN(C)C)ncn2)c1
AC50 (Cytochrome P450 2D6): 20 µM (inconclusive) | AC50 (Cytochrome P450 2C19): inconclusive

Nc1ncnc(N)c1N=Nc1ccccc1
EC50 [6]: 11.2 µM (active) | EC50 [7]: 15.7 µM (active)

Cc1nn(-c2ccccc2)c2c1C(c1ccncc1)C(C#N)=C(N)O2 (stereo unspecified)
AC50 [8]: 12.7 µM (active) | EC50 (Protein RecA): 3.05 µM (active)

FC(F)(F)c1ccccc1-c1nccc(NCCN2CCOCC2)n1
AC50 (Cytochrome P450 2D6): 12.6 µM (inconclusive) | AC50 (Cytochrome P450 2C19; read-out: AC50): 6.31 µM (inconclusive)

CCc1cccc(NC2c3ccccc3C(=O)N2c2cccnc2)c1 (stereo unspecified)
EC50 [4]: > 112 µM (not active) | EC50 [5]: > 112 µM (not active)

N=C(N)SCc1cn(-c2ccccc2)nc1-c1ccc(Br)cc1
EC50 [9]: 1.03 µM (active) | AC50 [8]: 8.68 µM (active) | EC50 [10]: 11.2 µM (active) | EC50 (Protein RecA): 11 µM (active)

Cc1cnc(C)c(N2CCN(Cc3nc(-c4ccccc4)no3)CC2)n1
EC50 [4]: > 112 µM (not active) | EC50 [5]: > 112 µM (not active)

CCOC(=O)CSc1nc(=O)c(NCC(=O)OC)n[nH]1
AC50 [8]: 12 µM (active) | EC50 (Protein RecA): 5.87 µM (active)

O=C1CSCN1c1ccc(Cl)cc1
EC50 (cells [11]): > 350 µM (not active) | EC50 (cells [12]): > 350 µM (not active)

O=C1Oc2ccccc2C(=O)/C1=C\N1C(=O)N/C(=C\c2ccccc2O)C1=O
AC50 (Cytochrome P450 2D6): 3.98 µM (inconclusive) | AC50 (Cytochrome P450 1A2): 0.316 µM (inconclusive) | AC50 (Cytochrome P450 3A4): 3.98 µM (inconclusive) | AC50 (Cytochrome P450 2C19; read-out: AC50): 6.31 µM (inconclusive)

O=C(O)C1C2CCC(C2)C1C(=O)Nc1ccccc1 (stereo unspecified)
EC50 [4]: > 112 µM (not active) | EC50 [5]: > 112 µM (not active)

CC1CCCC(C)N1C(=O)COC(=O)CNC(=O)c1sc2ccccc2c1Cl (stereo unspecified)
EC50 [4]: > 112 µM (not active) | EC50 [5]: > 112 µM (not active)

CCOC(=O)CNC(=O)CSc1nnc(Cn2cnc3ccccc32)n1C
EC50 (cells [11]): > 350 µM (not active) | EC50 (cells [12]): > 350 µM (not active)

CCCS(=O)(=O)N1CCCC(C(=O)NCCCN2CCN(c3ccc(F)cc3)CC2)C1 (stereo unspecified)
AC50 (Cytochrome P450 2D6): 5.01 µM (inconclusive)

C1CCC2(CC1)C1=C(CCCC1)Nc1nnnn12
EC50 (cells [11]): > 350 µM (not active) | EC50 (cells [12]): > 350 µM (not active)

Cc1ccc(-n2nc(C)c3c2OC(N)=C(C#N)C3c2cccs2)cc1 (stereo unspecified)
AC50 [8]: 3.81 µM (active) | EC50 [13]: > 120 µM (not active) | EC50 [14]: 33 µM (active) | EC50 (H4): > 120 µM (not active)

O=C(N1CCN(Cc2ccccc2)CC1)C12CC3CC(CC(C3)C1)C2
EC50 [4]: > 112 µM (not active) | EC50 [5]: > 112 µM (not active)

C=CCN(c1ccccc1)S(=O)(=O)c1cccc(C(=O)Nc2nc3ccccc3[nH]2)c1
AC50 [1]: 10.1 µM (active) | AC50 [2]: 27.8 µM (active) | AC50 [3]: 49.7 µM (active)

O=C(c1ccco1)c1cn(CC(=O)N2CCCc3ccccc32)c2ccccc12
EC50 [4]: > 112 µM (not active) | EC50 [5]: > 112 µM (not active)

O=C(CN(Cc1ccccc1Cl)C(=O)c1ccc(CN2CCOCC2)o1)NCc1ccccc1
EC50 [4]: > 112 µM (not active) | EC50 [5]: 62.6 µM (active)

Nc1cccc(-c2nc3ccc(N)cc3s2)c1
EC50 [4]: 2.3 µM (active) | EC50 [5]: < 0.701 µM (active)

CCOC(=O)COc1cccc2c(=O)n(CC(=O)N3CCN(C(=O)OCC)CC3)ccc12
EC50 [4]: > 112 µM (not active) | EC50 [5]: > 112 µM (not active)

NCCCN1CCN(c2ccccc2)CC1
AC50 (Cytochrome P450 2D6): 3.16 µM (inconclusive)

COc1ccc(/C=C2/C(=O)N(c3ccccc3)N=C2C)cc1
AC50 [8]: 4.44 µM (active) | EC50 (Protein RecA): 1.7 µM (active)

COc1cc(C2(c3ccc(O)c(OC)c3)C(=O)Nc3c(C)cc(Br)cc32)ccc1O
AC50 [8]: 5.77 µM (active) | EC50 (Protein RecA): 14.4 µM (active)

CCOC(=O)N1CCC(/N=c2/c(-c3ccccc3)c(O)c2=O)CC1
EC50 (cells [11]): > 350 µM (not active) | EC50 (cells [12]): > 350 µM (not active)

C/C(CC(=O)Nc1ccc(F)cc1F)=N\NC(=O)C(=O)N1CCCCC1
AC50 [8]: 5 µM (active) | EC50 (Protein RecA): 1.8 µM (active)

O=C(N/N=C/c1ccccn1)c1ccc(Br)cc1
EC50 (cells [11]): 15.2 µM (active) | EC50 (cells [12]): > 350 µM (not active)

CCCCCC(=O)O[C@]1(C(C)=O)CC[C@H]2[C@@H]3CCC4=CC(=O)CC[C@]4(C)[C@H]3CC[C@@]21C [HYDROXYPROGESTERONE CAPROATE]
AC50 [8]: 11.9 µM (active) | EC50 (Protein RecA): 4.88 µM (active)
